Source: patent US11008321B2, “Crystalline form of an avibactam derivative” (ARIXA PHARMACEUTICALS, INC., priority 2019, dated 2021)

Assays:
[1] = trans isomer vs cis isomer; cited from earlier work
[2] = Dynamic vapor sorption (hygroscopicity); type: physicochemical
Protocol: The hygroscopicity of crystalline ethyl 3-(((((1R,2S,5R)-2-carbamoyl-7-oxo-1,6-diazabicyclo[3.2.1]octan-6-yl)oxy)sulfonyl)oxy)-2,2-dimethylpropanoate anhydrate (1) was evaluated during one vapor sorption/desorption cycle using a SMS DVS Intrinsic from Surface Measurement Systems set at 25° C., with a nitrogen (N2) gas flow rate of 200 mL/min, a dm/dt of 0.02%/min and a minimum dm/dt stability duration of 10 min. Samples (10 mg to 20 mg) were first dried at 25° C. for 180 min under a nitrogen atmosphere. The samples were considered equilibrated with the weight change during a 2-min interval was less than 0.01%. To evaluate the DVS the samples were exposed to a humidity cycle ramped/de-ramped from 5% RH to 95% RH at 10% RH intervals. At each humidity interval, the samples were equilibrated as determined by a less than 0.01% weight change during 5 min.

[3] = Thermogravimetric analysis; type: physicochemical; details: 10° C./min, N2
Protocol: Thermogravimetric analysis was performed using a TA Instruments Q500 TGA calibrated using a nickel reference standard. Samples were placed in an open platinum pan and after equilibrating at 35° C., the samples were heated under a nitrogen (N2) atmosphere at a rate of 10° C./min to a final temperature of 200° C. TGA curves for crystalline ethyl 3-(((((1R,2S,5R)-2-carbamoyl-7-oxo-1,6-diazabicyclo[3.2.1]octan-6-yl)oxy)sulfonyl)oxy)-2,2-dimethylpropanoate anhydrate are shown in FIGS. 2 and 4 show a weight loss of 9.7% between 125° C. to 150° C. The weight loss form 30° C. to 125° C. was 0.77%.

[4] = Stability on exposure to ambient conditions and formulation processing; type: physicochemical
[5] = Jet milling, crystalline form by XRPD before and after; type: physicochemical; details: jet milled, particle size about 8.6 μm
Protocol: X-ray powder diffraction (XPRD) analysis was performed using a Panalytical X-Pert Powder XPRD (Malvem Panalytical Ltd.) on a Si zero-background holder. The 20 position was calibrated against a Panalytical Si standard disc. The X-ray wavelength was Kα2/Kα1 (1.540598 Å/1.544425 Å) at a 0.5 intensity ratio. The X-ray tube was set at an output voltage of 45 kV and a current of 40 mA. A ⅛° fixed divergence slit was used and the diffraction patterns were obtained from 3° to 40° (°2θ) in a continuous scan mode using a step size of 0.01310 (2θ) and a scan speed of 0.145 deg/min. Crystalline anhydrate (1) was jet milled to obtain a uniform particle size distribution centered at a about 8.6 μm. An Alpine 50AS (PDS-PL-JM-01) Jet Mill (Hosokawa Alpine) was used to prepare the formulation. The injector gas pressure was 4.0 Bar and the grinding gas pressure was 3.5 Bar. Five (5) gm of crystalline anhydrate (1) was gradually added to the jet mill and collected. The milled product was stored at a temperature from 2° C. to 8° C.

[6] = Stability in aqueous suspension formulation (XRPD); type: physicochemical; details: 25° C., 24 hours; 0.25 wt % Tween 80, 10 wt % PEG 400, 0.5 wt % methylcellulose, pH 3.0 citrate buffer
Protocol: X-ray powder diffraction (XPRD) analysis was performed using a Panalytical X-Pert Powder XPRD (Malvem Panalytical Ltd.) on a Si zero-background holder. The 20 position was calibrated against a Panalytical Si standard disc. The X-ray wavelength was Kα2/Kα1 (1.540598 Å/1.544425 Å) at a 0.5 intensity ratio. The X-ray tube was set at an output voltage of 45 kV and a current of 40 mA. A ⅛° fixed divergence slit was used and the diffraction patterns were obtained from 3° to 40° (°2θ) in a continuous scan mode using a step size of 0.01310 (2θ) and a scan speed of 0.145 deg/min. An aqueous formulation of crystalline anhydrate (1) was prepared by suspending 100 mg crystalline anhydrate (1) in 100 mL of an aqueous solution containing 0.25 wt % Tween® 80, 10 wt % PEG 400, 0.5 wt % methylcellulose (400 cps), and a pH 3.0 citrate buffer. The suspension was sonicated and equilibrated for 24 hours at 25° C. before filtering out the crystalline anhydrate (1).

Nc1nc(/C(=C/CC(=O)O)C(=O)N[C@@H]2C(=O)N3C(C(=O)O)=CCS[C@H]23)cs1 [Ceftibuten, (6R,7R)-7-((Z)-2-(2-amino-4-thiazolyl)-4-carboxycrotonamido)-8-oxo-5-thia-1-azabicyclo(4.2.0)oct-2-ene-2-carboxylic acid]
antibiotic activity of trans isomer relative to cis isomer [1]: about one-eighth

CCOC(=O)C(C)(C)COS(=O)(=O)ON1C(=O)N2C[C@H]1CC[C@H]2C(N)=O [crystalline anhydrate (1), ethyl 3-(((((1R,2S,5R)-2-carbamoyl-7-oxo-1,6-diazabicyclo[3.2.1]octan-6-yl)oxy)sulfonyl)oxy)-2,2-dimethylpropanoate]
change of crystalline form during water absorption/desorption (reversibility of DVS isotherm) ([2]; 25° C., one sorption/desorption cycle, 5% RH to 95% RH): does not change
maximum increase in mass (moisture absorption) ([2]; 25° C./95% RH, humidity range 0% RH to 95% RH, reversible): about 3 wt %
weight loss (TGA) ([3]; 30° C. to 125° C.): 0.77%
weight loss (TGA) ([3]; between 125° C. to 150° C.): 9.7%
stability following exposure to ambient conditions ([4]; 25° C./60% RH): stable
stability during formulation processing conditions ([4]; formulation processing conditions): stable
crystalline form before and after jet-milling (XRPD) [5]: the same
stability in an aqueous suspension (XRPD similarity) [6]: stable
